The values that follow come from ChEMBL document CHEMBL3992554, “Incorporation of arginine mimetic residue into peptides for recognition of double stranded nucleic acid structure: Binding and aggregation studies” (Bioorg Med Chem, 2017).

Molecules are shown by their SMILES. Active and inactive are the calls of the source. The calls are words filed in the database; no cut-off is given here. Peptide text beside a SMILES is read from it. * marks the point of attachment. Pyrrole2CO(5-CO-guanidino) = N=C(N)NC(=O)c1ccc(C(=O)*)[nH]1

The nature of series [1]: Chemical stability in water at +8 degC. Format: physicochemical. Particulars: buffer.
For series [2], the species on record is Bos taurus. The series can be described thus: Binding affinity to calf thymus duplex DNA in pH 7.4 sodium cacodylate buffer assessed as positive-negative bisignate ICD band at peptide to polynucleotide ratio of 0.2 to 1.3 by CD titration method.
Series [3] can be described thus: Aggregation of the compound in water at 25 to 95 degC by UV-Visible titration method. It counts as physicochemical. Particulars: buffer.
A short description of series [4]: Binding affinity to poly(dA-dT)2 DNA (unknown origin) in pH 7.4 sodium cacodylate buffer assessed as positive-negative bisignate ICD band at peptide to polynucleotide ratio of 0.1 to 1.7 by CD titration method.
Series [5] is described as follows: Binding affinity to poly(dA-dT)2 DNA (unknown origin) in pH 7.4 sodium cacodylate buffer by UV-Visible titration method.
The nature of series [6]: Binding affinity to poly(rA).(rU) RNA duplex (unknown origin) in pH 7.4 sodium cacodylate buffer by UV-Visible titration method.
Series [7] can be described thus: Binding affinity to poly(rA).(rU) RNA duplex (unknown origin) in pH 7.4 sodium cacodylate buffer assessed as positive-negative bisignate ICD band at peptide to polynucleotide ratio of 0.1 to 1.7 by CD titration method.
The nature of series [8]: Aqueous solubility of the compound in water. Particulars: buffer. Format: physicochemical.
Series [9] can be described thus: Binding affinity to poly(dG-dC)2 DNA (unknown origin) in pH 7.4 sodium cacodylate buffer assessed as positive-negative bisignate ICD band at peptide to polynucleotide ratio of 0.1 to 1.7 by CD titration method.
The nature of series [10]: Binding affinity to poly(dG-dC)2 DNA (unknown origin) in pH 7.4 sodium cacodylate buffer by UV-Visible titration method.
Series [11] is filed under the species Bos taurus. The experiment in a line: Binding affinity to calf thymus duplex DNA in pH 7.4 sodium cacodylate buffer by UV-Visible titration method.
Series [12] is described as follows: Binding affinity to poly(dA-dT)2 DNA (unknown origin) in pH 7.4 sodium cacodylate buffer at peptide to polynucleotide ratio of 0.2 to 2.1 by CD titration method.
Series [13] in a line: Binding affinity to poly(rA).(rU) RNA duplex (unknown origin) in pH 7.4 sodium cacodylate buffer at peptide to polynucleotide ratio of 0.2 to 2.4 by CD titration method.
The species entered for series [14] is Bos taurus. The experiment in a line: Binding affinity to calf thymus duplex DNA in pH 7.4 sodium cacodylate buffer at peptide to polynucleotide ratio of 0.2 to 2.1 by CD titration method.
Series [15] can be described thus: Binding affinity to poly(dG-dC)2 DNA (unknown origin) in pH 7.4 sodium cacodylate buffer at peptide to polynucleotide ratio of 0.2 to 2.4 by CD titration method.
Series [16] can be described thus: Binding affinity to poly(dA-dT)2 DNA (unknown origin) in pH 7.4 sodium cacodylate buffer assessed as change in melting temperature at peptide to polynucleotide ratio of 0.3 by thermal denaturation assay.
A short description of series [17]: Binding affinity to poly(rA).(rU) RNA duplex (unknown origin) in pH 7.4 sodium cacodylate buffer assessed as positive induced CD band at peptide to polynucleotide ratio of 0.4 by CD titration method.
The nature of series [18]: Induction of poly(dG-dC)2 DNA aggregation (unknown origin) in pH 7.4 sodium cacodylate buffer at peptide to polynucleotide ratio of 0.5 by CD titration method.
The nature of series [19]: Binding affinity to poly(dG-dC)2 DNA (unknown origin) in pH 7.4 sodium cacodylate buffer at 5.35 uM by fluorimetric titration method.
Series [20] can be described thus: Binding affinity to poly(rA).(rU) RNA duplex (unknown origin) in pH 7.4 sodium cacodylate buffer at 5.35 uM by fluorimetric titration method.
The species named for series [21] is Bos taurus. The experiment in a line: Binding affinity to calf thymus duplex DNA in pH 7.4 sodium cacodylate buffer assessed as change in melting temperature at peptide to polynucleotide ratio of 0.3 by thermal denaturation assay.
For series [22], the species on record is Bos taurus. The series can be described thus: Binding affinity to calf thymus duplex DNA in pH 7.4 sodium cacodylate buffer assessed as positive induced CD band at peptide to polynucleotide ratio of 0.4 by CD titration method.
Series [23] in a line: Binding affinity to poly(dA-dT)2 DNA (unknown origin) in pH 7.4 sodium cacodylate buffer assessed as change in melting temperature at peptide to polynucleotide ratio of 0.5 by thermal denaturation assay.
Series [24] can be described thus: Binding affinity to poly(dG-dC)2 DNA (unknown origin) in pH 7.4 sodium cacodylate buffer assessed as positive induced CD band at peptide to polynucleotide ratio of 0.4 by CD titration method.
Series [25] can be described thus: Binding affinity to poly(rA).(rU) RNA duplex (unknown origin) in pH 7.4 sodium cacodylate buffer assessed as change in melting temperature at peptide to polynucleotide ratio of 0.3 by thermal denaturation assay.
Series [26] is described as follows: Induction of poly(rA).(rU) RNA duplex aggregation (unknown origin) in pH 7.4 sodium cacodylate buffer at peptide to polynucleotide ratio of 0.5 by CD titration method.
The species entered for series [27] is Bos taurus. The series can be described thus: Binding affinity to calf thymus duplex DNA in pH 7.4 sodium cacodylate buffer assessed as change in melting temperature at peptide to polynucleotide ratio of 0.5 by thermal denaturation assay.
A short description of series [28]: Binding affinity to poly(dA-dT)2 DNA (unknown origin) in pH 7.4 sodium cacodylate buffer assessed as positive induced CD band at peptide to polynucleotide ratio of 0.4 by CD titration method.
Series [29] is described as follows: Binding affinity to poly(rA).(rU) RNA duplex (unknown origin) in pH 7.4 sodium cacodylate buffer assessed as change in melting temperature at peptide to polynucleotide ratio of 0.5 by thermal denaturation assay.
The nature of series [30]: Induction of poly(dA-dT)2 DNA aggregation (unknown origin) in pH 7.4 sodium cacodylate buffer at peptide to polynucleotide ratio of 0.5 by CD titration method.
The species entered for series [31] is Bos taurus. The experiment in a line: Induction of calf thymus duplex DNA aggregation in pH 7.4 sodium cacodylate buffer at peptide to polynucleotide ratio of 0.5 by CD titration method.
A short description of series [32]: Binding affinity to poly(dA-dT)2 DNA (unknown origin) in pH 7.4 sodium cacodylate buffer at 5.35 uM by fluorimetric titration method.
The nature of series [33]: Binding affinity to poly(dA-dT)2 DNA (unknown origin) in pH 7.4 sodium cacodylate buffer assessed as negative induced band at peptide to polynucleotide ratio of >0.8 by CD titration method.
A short description of series [34]: Binding affinity to poly(rA).(rU) RNA duplex (unknown origin) in pH 7.4 sodium cacodylate buffer at peptide to polynucleotide ratio of 0.1 to 0.95 by CD titration method.
The species entered for series [35] is Bos taurus. The series can be described thus: Induction of calf thymus duplex DNA aggregation in pH 7.4 sodium cacodylate buffer at 0.3 to 1.5 equiv by dynamic light scattering.
The species named for series [36] is Bos taurus. The series can be described thus: Induction of calf thymus duplex DNA aggregation in pH 7.4 sodium cacodylate buffer at 0.3 to 0.5 equiv after 5 mins by atomic force microscopic method.
For series [37], the species on record is Bos taurus. The experiment in a line: Binding affinity to calf thymus duplex DNA in pH 7.4 sodium cacodylate buffer at peptide to polynucleotide ratio of 0.1 to 0.5 by CD titration method.
Series [38] in a line: Binding affinity to poly(dA-dT)2 DNA (unknown origin) in pH 7.4 sodium cacodylate buffer by fluorimetric titration method.
The nature of series [39]: Binding affinity to poly(dG-dC)2 DNA (unknown origin) in pH 7.4 sodium cacodylate buffer at peptide to polynucleotide ratio of 0.1 to 0.6 by CD titration method.
A short description of series [40]: Binding affinity to poly(dA-dT)2 DNA (unknown origin) in pH 7.4 sodium cacodylate buffer at peptide to polynucleotide ratio of <0.4 by CD titration method.
Series [41] can be described thus: Binding affinity to poly(dG-dC)2 DNA (unknown origin) in pH 7.4 sodium cacodylate buffer by fluorimetric titration method.
Series [42] is described as follows: Binding affinity to poly(rA).(rU) RNA duplex (unknown origin) in pH 7.4 sodium cacodylate buffer by fluorimetric titration method.
Series [43] can be described thus: Binding affinity to poly(dA-dT)2 DNA (unknown origin) in pH 7.4 sodium cacodylate buffer at peptide to polynucleotide ratio of 0.1 to 1.1 by CD titration method.
The nature of series [44]: Binding affinity to poly(dA-dT)2 DNA (unknown origin) in pH 7.4 sodium cacodylate buffer by ITC.
The species named for series [45] is Bos taurus. The series can be described thus: Binding affinity to calf thymus duplex DNA in pH 7.4 sodium cacodylate buffer by ITC.
Series [46] can be described thus: Binding affinity to poly(rA).(rU) RNA duplex (unknown origin) in pH 7.4 sodium cacodylate buffer by ITC.
The nature of series [47]: Binding affinity to poly(dG-dC)2 DNA (unknown origin) in pH 7.4 sodium cacodylate buffer by ITC.

For the compound `N=C(N)NC(=O)c1ccc(C(=O)NCCCC[C@H](NC(=O)[C@H](CCCCNC(=O)c2ccc(C(=O)NC(=N)N)[nH]2)NC(=O)c2ccc(C(=O)NC(=N)N)[nH]2)C(N)=O)[nH]1`, the Stability entry in [1] is “Stable”. The outcome (in the series listed under Bos taurus [2]; in series [4]; in series [7]; in series [9]) was Active. Also, in series [3], the Activity entry is “Not Active”. Also, the log Ks in series [5] turned out to be 4.8; in series [6], 4.2; in series [10], 5.2; in the series listed under Bos taurus [11], 4.6. The solubility result in [8] was “Soluble”.
Turning to `N=C(N)NC(=O)c1ccc(C(=O)NCCCC[C@H](NC(=O)[C@@H](N)CCCCNC(=O)c2ccc(C(=O)NC(=N)N)[nH]2)C(N)=O)[nH]1`, the outcome (in [12]; in [13]; in the series listed under Bos taurus [14]; in series [15]) was Active. The Stability entry in [1] is “Stable”. For the same compound, the Activity entry in series [3] is “Not Active”. Further, the log Ks in [5] was determined as 4.6; in [6], 3.7; in the series listed under Bos taurus [11] it was 4.9. Also, the solubility entry in [8] is “Soluble”.
In the case of `N=C(N)NC(=O)c1ccc(C(=O)NCCCC[C@H](NC(=O)[C@H](CCCCNC(=O)c2ccc(C(=O)NC(=N)N)[nH]2)NC(=O)[C@H](CCCCNC(=O)c2ccc(C(=O)NC(=N)N)[nH]2)NC(=O)[C@@H](N)CCCCNC(=O)c2ccc(C(=O)NC(=N)N)[nH]2)C(N)=O)[nH]1` (H-K(Pyrrole2CO(5-CO-guanidino))K(Pyrrole2CO(5-CO-guanidino))K(Pyrrole2CO(5-CO-guanidino))K(Pyrrole2CO(5-CO-guanidino))-NH2), the thermal shift (ΔTm) worked out at 0.6 °C in series [16]; 0 °C in the series listed under Bos taurus [21]; 0.5 °C in series [23]; 2.1 °C in series [25]; 0 °C in the series filed under Bos taurus [27]; 2.4 °C in series [29]. The Stability entry in series [1] was “Stable”. Also, the Activity result in series [3] is on record as “Not Active”. The outcome (in [17]; in [18]; in series [19]; in [20]; in the series filed under Bos taurus [22]; in series [24]) was Active. Further, the outcome (in [26]; in series [28]; in series [30]; in the series filed under Bos taurus [31]; in [32]) was Active. The log Ks in series [5] was found to be 5.6; in series [6], 7; in [10] it was 7.3; in the series listed under Bos taurus [11], 5.4. Also, in [8], the solubility result is reported as “Soluble”.
Take `N=C(N)NC(=O)c1ccc(C(=O)NCCCC[C@H](NC(=O)[C@H](CCCCN)NC(=O)[C@H](CCCCN)NC(=O)[C@@H](N)CCCCN)C(N)=O)[nH]1` (H-KKKK(Pyrrole2CO(5-CO-guanidino))-NH2): the thermal shift (ΔTm) worked out at 3.3 °C in series [16]; 0.5 °C in the series filed under Bos taurus [21]; 4.9 °C in [23]; 7.9 °C in [25]; 2.6 °C in the series filed under Bos taurus [27]; 11.1 °C in series [29]. The Stability entry in [1] is listed as “Stable”. The Activity result in [3] is “Not Active”. Moreover, the outcome (in [33]; in [34]; in the series listed under Bos taurus [35]; in the series filed under Bos taurus [36]; in the series listed under Bos taurus [37]; in series [38]) was Active. Further, the result in [39], in series [40], in [41] and in series [42] was Active. The log Ks in series [5] came to 5.5; in [6] it was 5.3; in [10], 6.4; in the series listed under Bos taurus [11], 6.1. Moreover, the solubility entry in [8] is on record as “Soluble”.
In the case of `N=C(N)NCCC[C@H](NC(=O)[C@H](CCCNC(=N)N)NC(=O)[C@H](CCCNC(=N)N)NC(=O)[C@@H](N)CCCNC(=N)N)C(N)=O` (H-RRRR-NH2), the ΔTm was determined as 4.1 °C in series [16]; 1.9 °C in the series filed under Bos taurus [21]; 5 °C in [23]; 12.7 °C in series [25]; 2.7 °C in the series listed under Bos taurus [27]; 15.3 °C in [29]. For the same compound, the Stability result in [1] is “Stable”. Moreover, the Activity result in series [3] is recorded as “Not Active”. Further, the result in [43] was Active. Further, the log Ks fell in the range of 5.44 to 5.5 in series [44], 5.33 to 5.6 in the series listed under Bos taurus [45], 5.54 to 5.6 in series [46] and 5.42 to 5.5 in [47]. Moreover, the solubility entry in series [8] was “Soluble”.
